Data as given in patent US11053239B2, “Compounds as BLC-2-selective apoptosis-inducing agents” (Fochon Pharmaceuticals, Ltd., priority 2017, dated 2021).
Like-named read-outs stand apart in the source and are kept apart here.

Columns and labels:
DOHH2 cells = assay: Cell proliferation assay (MTS), DOHH2 cells; format: cell-based
How it was run: (§1)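 RS4;11 (30000 cells/well, 72 h) and DOHH2 (5000 cells/well, 120 h) cells in RPMI-1640/10% FBS, treated at 37 °C with compound at 1.5–10000 nM final. Viability by MTS (2 h, SDS stop), absorbance 490 nm minus 650 nm reference; IC50 fitted.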

RS4; 11 cells = assay: Cell proliferation assay (MTS), RS4; 11 cells; format: cell-based; conditions: read-out: RS4
How it was run: as §1

[1] = Homo sapiens, DOHH-2, 120 h, DOHH2 (DSMZ ACC 47) cell proliferation, 5000 cells/well, 120 h, MTS, mechanism-based readout of Bcl-2 inhibition, read-out: DOHH2 IC50
[2] = Homo sapiens, RS4-11, 72 h, RS4, 11 (ATCC CRL-1873) cell proliferation, 30000 cells/well, 72 h, MTS, mechanism-based readout of Bcl-2 inhibition, 11 IC50

Molecule	IC50 (DOHH2 cells; [1]) [nM]	IC50 (RS4; 11 cells; [2]) [nM]	further results
CCS(=O)(CC)=NC1CCC(CNc2ccc(S(=O)(=O)NC(=O)c3ccc(N4CCN(CC5=C(c6ccc(Cl)cc6)CC(C)(C)CC5)CC4)cc3Oc3cnc4[nH]ccc4c3)cc2[N+](=O)[O-])CC1 (stereo not shown) [Example 9B, 2-((1H-pyrrolo[2,3-b]pyridin-5-yl)oxy)-4-(4-((4′-chloro-5,5-dimethyl-3,4,5,6-tetrahydro-[1,1′-biphenyl]-2-yl)methyl)piperazin-1-yl)-N-((4-((((1r,4r)-4-((diethyl(oxo)-λ^6-sulfanylidene)amino)cyclohexyl)methyl)amino)-3-nitrophenyl)sulfonyl)benzamide]	–	–	IC50 (DOHH2 cells; Homo sapiens, DOHH-2, 120 h, read-out: DOHH2 IC50 (nM)): 11 nM; IC50 (RS4; 11 cells; Homo sapiens, RS4-11, 72 h, 11 IC50 (nM)): 5 nM
COC(=O)N=S1(=O)CCN(CCNc2ccc(S(=O)(=O)NC(=O)c3ccc(N4CCN(CC5=C(c6ccc(Cl)cc6)CC(C)(C)CC5)CC4)cc3Oc3cnc4[nH]ccc4c3)cc2[N+](=O)[O-])CC1 [Example 43, methyl (4-(2-((4-(N-(2-((1H-pyrrolo[2,3-b]pyridin-5-yl)oxy)-4-(4-((4′-chloro-5,5-dimethyl-3,4,5,6-tetrahydro-[1,1′-biphenyl]-2-yl)methyl)piperazin-1-yl)benzoyl)sulfamoyl)-2-nitrophenyl)amino)ethyl)-1-oxido-1λ^6-thiomorpholin-1-ylidene) carbamate]	271	102	–
COC(=O)N=S1(=O)CCN(CC[C@H](C)Nc2ccc(S(=O)(=O)NC(=O)c3ccc(N4CCN(CC5=C(c6ccc(Cl)cc6)CC(C)(C)CC5)CC4)cc3Oc3cnc4[nH]ccc4c3)cc2S(=O)(=O)C(F)(F)F)CC1 [Example 92, methyl (S)-(4-(3-((4-(N-(2-((1H-pyrrolo[2,3-b]pyridin-5-yl)oxy)-4-(4-((4′-chloro-5,5-dimethyl-3,4,5,6-tetrahydro-[1,1′-biphenyl]-2-yl)methyl)piperazin-1-yl)benzoyl)sulfamoyl)-2-((trifluoromethyl)sulfonyl)phenyl)amino)butyl)-1-oxido-1λ^6-thiomorpholin-1-ylidene) carbamate]	53	109	–
CCN=S1(=O)CCC(CNc2ccc(S(=O)(=O)NC(=O)c3ccc(N4CCN(CC5=C(c6ccc(Cl)cc6)CC(C)(C)CC5)CC4)cc3Oc3cnc4[nH]ccc4c3)cc2[N+](=O)[O-])CC1 (stereo not shown) [Example 30, 2-((1H-pyrrolo[2,3-b]pyridin-5-yl)oxy)-4-(4-((4′-chloro-5,5-dimethyl-3,4,5,6-tetrahydro-[1,1′-biphenyl]-2-yl)methyl)piperazin-1-yl)-N-((4-(((1-(ethylimino)-1-oxidohexahydro-1λ^6-thiopyran-4-yl)methyl)amino)-3-nitrophenyl)sulfonyl) benzamide]	132	43	–
CN=S1(=O)CCN(C[C@H](C)Nc2ccc(S(=O)(=O)NC(=O)c3ccc(N4CCN(CC5=C(c6ccc(Cl)cc6)CC(C)(C)CC5)CC4)cc3Oc3cnc4[nH]ccc4c3)cc2[N+](=O)[O-])CC1 [Example 7, (S)-2-((1H-pyrrolo[2,3-b]pyridin-5-yl)oxy)-4-(4-((4′-chloro-5,5-dimethyl-3,4,5,6-tetrahydro-[1,1′-biphenyl]-2-yl)methyl)piperazin-1-yl)-N-((4-((1-(1-(methylimino)-1-oxido-1λ^6-thiomorpholino)propan-2-yl)amino)-3-nitrophenyl)sulfonyl)benzamide]	111	55	–
CC(=O)N=S1(=O)CCN(CC[C@H](C)Nc2ccc(S(=O)(=O)NC(=O)c3ccc(N4CCN(CC5=C(c6ccc(Cl)cc6)CC(C)(C)CC5)CC4)cc3Oc3cnc4[nH]ccc4c3)cc2S(=O)(=O)C(F)(F)F)CC1 [Example 89, (S)-2-((1H-pyrrolo[2,3-b]pyridin-5-yl)oxy)-N-((4-((4-(1-(acetylimino)-1-oxido-1λ^6-thiomorpholino)butan-2-yl)amino)-3-((trifluoromethyl)sulfonyl)phenyl)sulfonyl)-4-(4-((4′-chloro-5,5-dimethyl-3,4,5,6-tetrahydro-[1,1′-biphenyl]-2-yl)methyl)piperazin-1-yl)benzamide]	112	53	–
C[C@@H](CCN1CCC(N=S(C)(C)=O)CC1)Nc1ccc(S(=O)(=O)NC(=O)c2ccc(N3CCN(CC4=C(c5ccc(Cl)cc5)CC(C)(C)CC4)CC3)cc2Oc2cnc3[nH]ccc3c2)cc1[N+](=O)[O-] [Example 96, (S)-2-((1H-pyrrolo[2,3-b]pyridin-5-yl)oxy)-4-(4-((4′-chloro-5,5-dimethyl-3,4,5,6-tetrahydro-[1,1′-biphenyl]-2-yl)methyl)piperazin-1-yl)-N-((4-((4-(4-((dimethyl(oxo)-λ^6-sulfanylidene)amino)piperidin-1-yl)butan-2-yl)amino)-3-nitrophenyl)sulfonyl) benzamide]	26	20	–
(S)-2-((1H-pyrrolo[2,3-b] pyridin-5-yl)oxy)-4-(4-((4′- chloro-5,5-dimethyl- 3,4,5,6-tetrahydro-[1,1′- biphenyl]-2-yl)methyl) piperazin-1-yl)-N-((4-((1-(4- ((dimethyl(oxo)-λ^6- sulfanylidene)amino) piperidin-1-yl)propan-2-yl) amino)-3-nitrophenyl)sulfonyl) benzamide [Example 97]	–	–	IC50 (DOHH2 cells; DOHH2 (DSMZ ACC 47) cell proliferation, 5000 cells/well, 120 h, MTS, mechanism-based readout of Bcl-2 inhibition, read-out: DOHH2 IC50): 325 nM; IC50 (RS4; 11 cells; RS4, 11 (ATCC CRL-1873) cell proliferation, 30000 cells/well, 72 h, MTS, mechanism-based readout of Bcl-2 inhibition, 11 IC50): 1 nM
CC1(C)CCC(CN2CCN(c3ccc(C(=O)NS(=O)(=O)c4ccc(NCC5CCC(N=S6(=O)CCOCC6)CC5)c(S(=O)(=O)C(F)(F)F)c4)c(Oc4cnc5[nH]ccc5c4)c3)CC2)=C(c2ccc(Cl)cc2)C1 (stereo not shown) [Example 55, 2-((1H-pyrrolo[2,3-b]pyridin-5-yl)oxy)-4-(4-((4′-chloro-5,5-dimethyl-3,4,5,6-tetrahydro-[1,1′-biphenyl]-2-yl)methyl)piperazin-1-yl)-N-((4-(((4-((4-oxido-1,4λ^6-oxathian-4-ylidene)amino)cyclohexyl)methyl)amino)-3-((trifluoromethyl)sulfonyl)phenyl)sulfonyl) benzamide]	346	231	–
CC1(C)CCC(CN2CCN(c3ccc(C(=O)NS(=O)(=O)c4ccc(NCC5CC(N=S(C)(C)=O)C5)c([N+](=O)[O-])c4)c(Oc4cnc5[nH]ccc5c4)c3)CC2)=C(c2ccc(Cl)cc2)C1 (stereo not shown) [Example 59, 2-((1H-pyrrolo[2,3-b]pyridin-5-yl)oxy)-4-(4-((4′-chloro-5,5-dimethyl-3,4,5,6-tetrahydro-[1,1′-biphenyl]-2-yl)methyl)piperazin-1-yl)-N-((4-(((3-((dimethyl(oxo)-λ^6-sulfanylidene)amino)cyclobutyl)methyl)amino)-3-nitrophenyl)sulfonyl)benzamide]	82	35	–
CC(C)OC(=O)N=S1(=O)CCN(C[C@H](C)Nc2ccc(S(=O)(=O)NC(=O)c3ccc(N4CCN(CC5=C(c6ccc(Cl)cc6)CC(C)(C)CC5)CC4)cc3Oc3cnc4[nH]ccc4c3)cc2[N+](=O)[O-])CC1 [Example 73, isopropyl (S)-(4-(2-((4-(N-(2-((1H-pyrrolo[2,3-b]pyridin-5-yl)oxy)-4-(4-((4′-chloro-5,5-dimethyl-3,4,5,6-tetrahydro-[1,1′-biphenyl]-2-yl)methyl)piperazin-1-yl)benzoyl)sulfamoyl)-2-nitrophenyl)amino)propyl)-1-oxido-1λ^6-thiomorpholin-1-ylidene)carbamate]	263	94	–
CC(C)C(=O)N=S1(=O)CCN(CC[C@H](C)Nc2ccc(S(=O)(=O)NC(=O)c3ccc(N4CCN(CC5=C(c6ccc(Cl)cc6)CC(C)(C)CC5)CC4)cc3Oc3cnc4[nH]ccc4c3)cc2S(=O)(=O)C(F)(F)F)CC1 [Example 90, (S)-2-((1H-pyrrolo[2,3-b]pyridin-5-yl)oxy)-4-(4-((4′-chloro-5,5-dimethyl-3,4,5,6-tetrahydro-[1,1′-biphenyl]-2-yl)methyl)piperazin-1-yl)-N-((4-((4-(1-(isobutyrylimino)-1-oxido-1λ^6-thiomorpholino)butan-2-yl)amino)-3-((trifluoromethyl)sulfonyl)phenyl)sulfonyl) benzamide]	225	116	–
C[C@@H](CN1CCP(C)(=O)CC1)Nc1ccc(S(=O)(=O)NC(=O)c2ccc(N3CCN(CC4=C(c5ccc(Cl)cc5)CC(C)(C)CC4)CC3)cc2Oc2cnc3[nH]ccc3c2)cc1[N+](=O)[O-] [Example 17, (S)-2-((1H-pyrrolo[2,3-b]pyridin-5-yl)oxy)-4-(4-((4′-chloro-5,5-dimethyl-3,4,5,6-tetrahydro-[1,1′-biphenyl]-2-yl)methyl)piperazin-1-yl)-N-((4-((1-(4-methyl-4-oxido-1,4-azaphosphinan-1-yl)propan-2-yl)amino)-3-nitrophenyl)sulfonyl)benzamide]	132	111	–
CC(=O)N=S1(=O)CCN(CC[C@H](C)Nc2ccc(S(=O)(=O)NC(=O)c3ccc(N4CCN(CC5=C(c6ccc(Cl)cc6)CC(C)(C)CC5)CC4)cc3Oc3cnc4[nH]ccc4c3)cc2[N+](=O)[O-])CC1 [Example 80]	95	47	–
